Laboratory results taken from patent publication US20080139558A1, “QUINOLONES USEFUL AS INDUCIBLE NITRIC OXIDE SYNTHASE INHIBITORS” (KALYPSYS, INC., priority 2006, published 2008).

Target: T1, human iNOS (Homo sapiens, UniProt P35228)
T1 construct: expressed in transfected cells; host or cells: HEK293
Experiment: DAN assay of nitric oxide production (hiNOS)
Type: cell-based
Settings: enzyme expressed in HEK293 cells transiently transfected with human iNOS
In short: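 Human iNOS transiently expressed in HEK293 cells; NO production quantified as nitrite via 2,3-diaminonaphthalene reaction forming fluorescent naphthotriazole.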

T1 sequence (P35228 whole entry): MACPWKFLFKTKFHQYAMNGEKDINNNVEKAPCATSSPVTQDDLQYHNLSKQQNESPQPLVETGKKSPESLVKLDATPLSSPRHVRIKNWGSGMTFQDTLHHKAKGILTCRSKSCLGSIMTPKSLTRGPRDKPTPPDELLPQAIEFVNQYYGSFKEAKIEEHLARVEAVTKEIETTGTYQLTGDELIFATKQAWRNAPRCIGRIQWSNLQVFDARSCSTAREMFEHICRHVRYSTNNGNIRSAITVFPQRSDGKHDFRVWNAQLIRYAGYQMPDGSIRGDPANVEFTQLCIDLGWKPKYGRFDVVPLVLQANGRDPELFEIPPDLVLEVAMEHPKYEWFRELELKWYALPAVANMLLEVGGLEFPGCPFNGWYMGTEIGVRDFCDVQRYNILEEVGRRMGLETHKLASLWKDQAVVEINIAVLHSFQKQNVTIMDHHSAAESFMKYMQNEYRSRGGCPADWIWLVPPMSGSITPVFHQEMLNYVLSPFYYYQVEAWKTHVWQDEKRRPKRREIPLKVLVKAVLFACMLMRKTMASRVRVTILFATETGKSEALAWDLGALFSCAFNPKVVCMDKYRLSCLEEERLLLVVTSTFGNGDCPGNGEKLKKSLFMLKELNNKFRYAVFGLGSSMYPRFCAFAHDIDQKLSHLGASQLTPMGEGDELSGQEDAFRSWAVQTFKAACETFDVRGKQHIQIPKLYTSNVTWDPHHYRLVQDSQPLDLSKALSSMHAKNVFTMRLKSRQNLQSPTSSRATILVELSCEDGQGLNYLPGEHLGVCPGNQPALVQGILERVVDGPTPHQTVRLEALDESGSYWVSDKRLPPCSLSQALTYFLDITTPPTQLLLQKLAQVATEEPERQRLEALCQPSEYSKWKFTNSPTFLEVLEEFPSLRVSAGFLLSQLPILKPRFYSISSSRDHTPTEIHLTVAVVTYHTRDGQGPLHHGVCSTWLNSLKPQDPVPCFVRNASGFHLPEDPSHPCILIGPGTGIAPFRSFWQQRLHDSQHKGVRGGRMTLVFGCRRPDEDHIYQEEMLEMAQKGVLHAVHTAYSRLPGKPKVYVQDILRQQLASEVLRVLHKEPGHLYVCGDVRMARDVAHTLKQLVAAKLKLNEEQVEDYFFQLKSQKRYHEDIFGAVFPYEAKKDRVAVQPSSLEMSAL

| Compound | EC50 [µM] |
| --- | --- |
| Cc1ncsc1C(=O)N(Cc1cc(=O)[nH]c2c(F)cccc12)C1CC1 [Example 87, N-Cyclopropyl-N-((8-fluoro-2-oxo-1,2-dihydroquinolin-4-yl)methyl)-4-methylthiazole-5-carboxamide] | > 5 |
| Cc1ncsc1C(=O)N(Cc1cc(=O)[nH]c2c(F)c(F)ccc12)c1cc(Cl)ccc1F [Example 88, N-(3-Chloro-6-fluorophenyl)-N-((7,8-fluoro-2-oxo-1,2-dihydroquinolin-4-yl)methyl)-4-methylthiazole-5-carboxamide] | ≤ 5 |
| Cc1ncsc1C(=O)N(Cc1cc(=O)[nH]c2c(F)c(F)ccc12)c1ccccc1F [Example 90, N-(2-Fluorophenyl)-N-((7,8-fluoro-2-oxo-1,2-dihydroquinolin-4-yl)methyl)-4-methylthiazole-5-carboxamide] | ≤ 5 |
| Cc1ncsc1C(=O)N(Cc1cc(=O)[nH]c2c(F)cccc12)c1ccc(F)c(F)c1 [Example 92, N-(3,4-Difluorophenyl)-N-((8-fluoro-2-oxo-1,2-dihydroquinolin-4-yl)methyl)-4-methylthiazole-5-carboxamide] | ≤ 5 |
| Cc1cccc(N(Cc2cc(=O)[nH]c3c(F)cccc23)C(=O)c2scnc2C)c1 [Example 93, N-(3-Methylphenyl)-N-((8-fluoro-2-oxo-1,2-dihydroquinolin-4-yl)methyl)-4-methylthiazole-5-carboxamide] | ≤ 5 |
| Cc1cccc(N(Cc2cc(=O)[nH]c3c(F)c(F)ccc23)C(=O)c2scnc2C)c1 [Example 94, N-(3-Methylphenyl)-N-((7,8-fluoro-2-oxo-1,2-dihydroquinolin-4-yl)methyl)-4-methylthiazole-5-carboxamide] | ≤ 5 |
| Cc1nc(Br)sc1C(=O)N(Cc1cc(=O)[nH]c2ccccc12)c1ccccc1 [Example 99, 2-Bromo-4-methyl-N-((2-oxo-1,2-dihydroquinolin-4-yl)methyl)-N-phenylthiazole-5-carboxamide] | ≤ 5 |
| Cc1nc(N(C)C)sc1C(=O)N(Cc1cc(=O)[nH]c2ccccc12)c1ccccc1 [Example 100, 2-(Dimethylamino)-4-methyl-N-((2-oxo-1,2-dihydroquinolin-4-yl)methyl)-N-phenylthiazole-5-carboxamide] | ≤ 5 |
| Cc1nc(N2CCOCC2)sc1C(=O)N(Cc1cc(=O)[nH]c2ccccc12)c1ccccc1 [Example 101, 4-Methyl-2-morpholino-N-((2-oxo-1,2-dihydroquinolin-4-yl)methyl)-N-phenylthiazole-5-carboxamide] | ≤ 5 |
| Cc1nc(N2CCN(C)CC2)sc1C(=O)N(Cc1cc(=O)[nH]c2ccccc12)c1ccccc1 [Example 102, 4-Methyl-2-(4-methylpiperazin-1-yl)-N-((2-oxo-1,2-dihydroquinolin-4-yl)methyl)-N-phenylthiazole-5-carboxamide] | > 5 |
| Cc1ccc2[nH]c(=O)c(CN(Cc3ccccc3)c3ccc(C#N)cn3)cc2c1 [Example 103, 6-(Benzyl((6-methyl-2-oxo-1,2-dihydroquinolin-3-yl)methyl)amino)nicotinonitrile] | > 5 |
| O=c1cc(CN2CCN(c3ccccc3F)CC2)c2ccccc2[nH]1 [Example 106, 4-((4-(2-Fluorophenyl)piperazin-1-yl)methyl)quinolin-2(1H)-one] | > 5 |
| Cc1ncsc1C(=O)N(Cc1cc(=O)[nH]c2cc(F)c(F)cc12)c1cccc(Cl)c1 [Example 109, N-(3-Chlorophenyl)-N-((6,7-difluoro-2-oxo-1,2-dihydroquinolin-4-yl)methyl)-4-methylthiazole-5-carboxamide] | ≤ 5 |
| Cc1nnsc1C(=O)N(Cc1cc(=O)[nH]c2c(F)c(F)ccc12)c1cccc(Cl)c1 [Example 110, N-(3-Chlorophenyl)-N-((7,8-difluoro-2-oxo-1,2-dihydroquinolin-4-yl)methyl)-4-methyl-1,2,3-thiadiazole-5-carboxamide] | ≤ 5 |
| Cc1ncsc1C(=O)N(Cc1cc(=O)[nH]c2cccc(F)c12)c1cccc(Cl)c1 [Example 111, N-(3-Chlorophenyl)-N-((5-fluoro-2-oxo-1,2-dihydroquinolin-4-yl)methyl)-4-methylthiazole-5-carboxamide] | ≤ 5 |
| Cc1ccncc1C(=O)N(Cc1c(F)c(=O)[nH]c2c(F)c(F)ccc12)c1cccc(Cl)c1 [Example 116, N-(3-Chlorophenyl)-4-methyl-N-((3,7,8-trifluoro-2-oxo-1,2-dihydroquinolin-4-yl)methyl)nicotinamide] | ≤ 5 |
| O=c1cc(Cn2c(-c3cccnc3)nc3ccccc32)c2cccc(F)c2[nH]1 [Example 118, 8-Fluoro-4-((2-(pyridin-3-yl)-1H-benzo[d]imidazol-1-yl)methyl)quinolin-2(1H)-one] | > 5 |
| O=c1cc(Cn2c(-c3cccnc3)nc3ccccc32)c2ccc(F)c(F)c2[nH]1 [Example 120, 7,8-Difluoro-4-((2-(pyridin-3-yl)-1H-benzo[d]imidazol-1-yl)methyl)quinolin-2(1H)-one] | > 5 |
| Cc1ccncc1-c1nc2ccccc2n1Cc1cc(=O)[nH]c2c(F)c(F)ccc12 [Example 121, 7,8-Difluoro-4-((2-(4-methylpyridin-3-yl)-1H-benzo[d]imidazol-1-yl)methyl)quinolin-2(1H)-one] | > 5 |
| Cn1cncc1-c1nc2ccccc2n1Cc1cc(=O)[nH]c2c(F)c(F)ccc12 [Example 122, 7,8-Difluoro-4-((2-(1-methyl-1H-imidazol-5-yl)-1H-benzo[d]imidazol-1-yl)methyl)quinolin-2(1H)-one] | ≤ 5 |
| O=C(c1nnc[nH]1)N(Cc1cc(=O)[nH]c2c(F)c(F)ccc12)c1cccc(Cl)c1 [Example 168, N-(3-Chlorophenyl)-N-[(7,8-difluoro-2-oxo-1,2-dihydroquinolin-4-yl)methyl]-4H-1,2,4-triazole-3-carboxamide] | ≤ 5 |

Second part, the compound after the results:

| EC50 [µM] | Compound |
| --- | --- |
| ≤ 5 | Cc1ncsc1C(=O)N(Cc1cc(=O)[nH]c2c(F)c(F)ccc12)c1cc(F)cc(Cl)c1 [Example 89] |
| ≤ 5 | Cc1ncsc1C(=O)N(Cc1cc(=O)[nH]c2c(F)cccc12)c1cccc(C#N)c1 [Example 95, N-(3-Cyanophenyl)-N-((8-fluoro-2-oxo-1,2-dihydroquinolin-4-yl)methyl)-4-methylthiazole-5-carboxamide] |
| ≤ 5 | Cc1ncsc1C(=O)N(Cc1cc(=O)[nH]c2c(F)c(F)ccc12)c1cccc(Cl)c1F [Example 96, N-(3-Chloro-2-fluorophenyl)-N-((7,8-fluoro-2-oxo-1,2-dihydroquinolin-4-yl)methyl)-4-methylthiazole-5-carboxamide] |
| ≤ 5 | Cc1ncsc1C(=O)N(Cc1cc(=O)[nH]c2c(F)cccc12)c1ccccc1 [Example 97, N-Phenyl-N-((8-fluoro-2-oxo-1,2-dihydroquinolin-4-yl)methyl)-4-methylthiazole-5-carboxamide] |
| ≤ 5 | Cc1nc(N(C)C)sc1C(=O)N(Cc1cc(=O)[nH]c2c(F)cccc12)c1ccc(F)c(Cl)c1 [Example 98, N-(3-Chloro-4-fluorophenyl)-2-(dimethylamino)-N-((8-fluoro-2-oxo-1,2-dihydroquinolin-4-yl)methyl)-4-methylthiazole-5-carboxamide] |
| > 5 | Cc1ncsc1CN(C(=O)c1cc(=O)[nH]c2c(F)cccc12)c1ccc(F)c(Cl)c1 [Example 104, N-(3-Chloro-4-fluorophenyl)-8-fluoro-N-((4-methylthiazol-5-yl)methyl)-2-oxo-1,2-dihydroquinoline-4-carboxamide] |
| > 5 | O=C(c1cc(=O)[nH]c2c(F)cccc12)N(Cc1cscn1)c1cccc(Cl)c1 [Example 105, N-(3-Chlorophenyl)-8-fluoro-2-oxo-N-(thiazol-4-ylmethyl)-1,2-dihydroquinoline-4-carboxamide] |
| > 5 | Cc1ncsc1C(=O)N(Cc1cc(=O)[nH]c2c(Br)ccc(F)c12)c1cccc(Cl)c1 [Example 107, N-((8-Bromo-5-fluoro-2-oxo-1,2-dihydroquinolin-4-yl)methyl)-N-(3-chlorophenyl)-4-methylthiazole-5-carboxamide] |
| ≤ 5 | Cc1ncsc1C(=O)N(Cc1c(F)c(=O)[nH]c2c(F)cccc12)c1cccc(Cl)c1 [Example 108, N-(3-Chlorophenyl)-N-((3,8-difluoro-2-oxo-1,2-dihydroquinolin-4-yl)methyl)-4-methylthiazole-5-carboxamide] |
| > 5 | Cn1nccc1C(=O)N(Cc1cc(=O)[nH]c2c(F)c(F)ccc12)c1cccc(Cl)c1 [Example 112, N-(3-Chlorophenyl)-N-((7,8-difluoro-2-oxo-1,2-dihydroquinolin-4-yl)methyl)-1-methyl-1H-pyrazole-5-carboxamide] |
| ≤ 5 | Cc1ccncc1C(=O)N(Cc1c(F)c(=O)[nH]c2c(F)cccc12)c1cccc(Cl)c1 [Example 114, N-(3-Chlorophenyl)-N-((3,8-difluoro-2-oxo-1,2-dihydroquinolin-4-yl)methyl)-4-methylnicotinamide] |
| ≤ 5 | Cc1ncsc1C(=O)N(Cc1c(F)c(=O)[nH]c2c(F)c(F)ccc12)c1cccc(Cl)c1 [Example 115, N-(3-Chlorophenyl)-4-methyl-N-((3,7,8-trifluoro-2-oxo-1,2-dihydroquinolin-4-yl)methyl)thiazole-5-carboxamide] |
| > 5 | Cc1ncsc1C(=O)N(Cc1cc(=O)n(C)c2c(F)cccc12)c1cccc(Cl)c1 [Example 117, N-(3-Chlorophenyl)-N-((8-fluoro-1-methyl-2-oxo-1,2-dihydroquinolin-4-yl)methyl)-4-methylthiazole-5-carboxamide] |
| ≤ 5 | Cc1ncsc1-c1nc2ccccc2n1Cc1cc(=O)[nH]c2c(F)c(F)ccc12 [Example 119, 7,8-Difluoro-4-((2-(4-methylthiazol-5-yl)-1H-benzo[d]imidazol-1-yl)methyl)quinolin-2(1H)-one] |
| ≤ 5 | Cc1ncsc1-c1nc2ccccc2n1Cc1cc(=O)[nH]c2ccccc12 [Example 124, 4-((2-(4-Methylthiazol-5-yl)-1H-benzo[d]imidazol-1-yl)methyl)quinolin-2(1H)-one] |
| > 5 | O=c1cc(Cn2c(-c3cccnc3)nc3ccccc32)c2ccccc2[nH]1 [Example 125, 4-((2-(Pyridin-3-yl)-1H-benzo[d]imidazol-1-yl)methyl)quinolin-2(1H)-one] |
